According to PubChem BioAssay AID977613 (Broad Institute, 2014):
Active and inactive are the calls of the source. No rule for the calls is given here.

What follows are compounds tested on Broad 7084-01 inhibitor HTS, set 2 (assay: single-concentration hits, screen 7084 set 2 (AID 977613);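 also: host cells are infected with parasite promastigotes that become internalized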).

SMILES | active concentration
CN(C)C(=O)C[C@@H]1CC[C@@H]2[C@H](COC[C@@H](O)CN2CC2CC2)O1 | > 10 µM (inactive)
COc1ccc2c3c([nH]c2c1)[C@@H](CO)N(C(=O)Nc1ccc(F)cc1)CC31CN(Cc2cc(-c3ccccc3)on2)C1 | > 10 µM (inactive)
CN(C)CC(=O)N1[C@@H](CO)[C@@H](c2ccccc2)C12CN(Cc1cc(F)ccc1F)C2 | > 10 µM (inactive)
N#C[C@H]1[C@H](c2ccccc2-c2ccccc2F)[C@H](CO)N1C(=O)C1CCC1 | > 10 µM (inactive)
Cc1cccc(S(=O)(=O)N2C[C@H](O)COC[C@@H]3O[C@H](CC(=O)Nc4ccccc4)CC[C@H]32)c1 | > 10 µM (inactive)
CCCC#Cc1ccc([C@H]2[C@H]3CN(C(=O)CN4CCOCC4)CC(=O)N3[C@H]2CO)cc1 | > 10 µM (inactive)
O=C(C[C@@H]1CC[C@@H]2[C@H](COC[C@H](O)CN2C(=O)c2ccccc2F)O1)NCc1ccccc1 | > 10 µM (inactive)
O=C(C[C@@H]1CC[C@@H]2[C@H](COC[C@H](O)CN2CCC(F)(F)F)O1)NCC1CC1 | > 10 µM (inactive)
Cc1ccc(-c2ccccc2[C@H]2[C@@H](C#N)N(c3ncc(-c4ccccc4)s3)[C@@H]2CO)cc1 | > 10 µM (inactive)
O=C(C[C@H]1CC[C@@H]2[C@H](COC[C@H](O)CN2Cc2cc(F)ccc2F)O1)NCc1ccc(F)cc1 | > 10 µM (inactive)
COc1ccc(C#Cc2ccc([C@@H]3[C@@H](CO)N4C(=O)CN(C(=O)c5ccc(F)cc5)C[C@@H]34)cc2)cc1 | > 10 µM (inactive)
COc1ccccc1-c1ccccc1[C@H]1[C@@H](CO)N(C(=O)C2CCOCC2)[C@H]1C#N | > 10 µM (inactive)
COCC(=O)N1CC[C@@H]2[C@H]1c1cc(-c3ccc(F)cc3)ccc1N(C)[C@@H]2CO | > 10 µM (inactive)
C/C=C/c1ccc([C@@H]2[C@H](CO)N(C(=O)CN(C)C)C23CN(C(=O)C2CCC2)C3)cc1 | > 10 µM (inactive)
CC(C)CC#Cc1ccc([C@@H]2[C@H]3CN(C(=O)c4ccccn4)CC(=O)N3[C@H]2CO)cc1 | > 10 µM (inactive)
Cc1noc(C)c1NC(=O)N1C[C@H](O)COC[C@H]2O[C@H](CC(=O)NCC3CCCCC3)CC[C@@H]21 | > 10 µM (inactive)
O=C(Nc1ccccc1)N1C[C@H]2[C@@H](c3ccccc31)[C@H](CO)N2Cc1ccccc1Cl | > 10 µM (inactive)
CN1c2ccc(C#Cc3cccnc3)cc2[C@H]2[C@H](CCN2S(=O)(=O)c2ccccc2F)[C@@H]1CO | > 10 µM (inactive)

SMILES | active concentration
CN1C(=O)c2cc(NS(C)(=O)=O)ccc2OC[C@H]2O[C@@H](CC(=O)N3CCOCC3)CC[C@@H]21 | > 10 µM (inactive)
O=C(c1ccccn1)N1CC[C@@H]2[C@H](CO)Nc3ccc(Br)cc3[C@@H]21 | > 10 µM (inactive)
COc1ccc2c3c([nH]c2c1)[C@@H](CO)N(S(C)(=O)=O)CC31CCN(C(=O)Nc2ccccc2)CC1 | > 10 µM (inactive)
CCS(=O)(=O)N1CC(=O)N2[C@@H](CO)[C@@H](c3ccc(C#CC4CCCCC4)cc3)[C@@H]2C1 | > 10 µM (inactive)
O=C(c1ccncc1)N1C[C@H]2[C@@H](c3ccccc31)[C@@H](CO)N2Cc1ccccc1F | > 10 µM (inactive)
CCCC#Cc1ccc([C@@H]2[C@@H](CO)N3C(=O)CN(S(=O)(=O)c4ccccc4C)C[C@H]23)cc1 | > 10 µM (inactive)
O=C(CC1CC1)N1[C@@H]2CN(S(=O)(=O)c3ccccc3F)c3ccccc3[C@@H]2[C@@H]1CO | > 10 µM (inactive)
COc1ccc2c3c(n(C)c2c1)[C@@H](CO)N(S(=O)(=O)c1ccc(C)cc1)CC31CN(C(=O)c2ccccn2)C1 | > 10 µM (inactive)
CN(C)C(=O)c1ccc(-c2ccc3c(c2)[C@@H]2[C@@H](CCN2Cc2ccc4c(c2)OCO4)[C@@H](CO)N3)cc1 | > 10 µM (inactive)
COc1ccccc1S(=O)(=O)N1CC[C@@H]2[C@H]1c1cc(-c3ccc(C#N)cc3)ccc1N[C@@H]2CO | > 10 µM (inactive)
C[C@H](O)C#Cc1ccc([C@@H]2[C@@H](CO)N3CCCCN(C(=O)c4ccc5c(c4)OCO5)C[C@H]23)cc1 | > 10 µM (inactive)
O=C(C[C@H]1CC[C@@H]2[C@H](COC[C@@H](O)CN2S(=O)(=O)c2cccc(Cl)c2)O1)NC1CCC1 | > 10 µM (inactive)
CC(C)C#Cc1ccc([C@@H]2[C@@H](CO)N3C(=O)CN(C(=O)c4ccc5c(c4)OCO5)C[C@H]23)cc1 | > 10 µM (inactive)
COC(=O)[C@H]1[C@H](CO)[C@H]2Cn3c(ccc(-c4cccc(OC)c4)c3=O)[C@H]2N1Cc1nccs1 | > 10 µM (inactive)
COc1ccc2c3c([nH]c2c1)[C@@H](CO)N(S(=O)(=O)c1cn(C)cn1)CC31CCN(CC2CCCCC2)CC1 | > 10 µM (inactive)
COCC(=O)N1[C@H](C#N)[C@H](c2ccccc2-c2ccccc2F)[C@H]1CO | > 10 µM (inactive)
N#C[C@@H]1[C@H](c2ccccc2C2=CCCCC2)[C@H](CO)N1C(=O)C1CCOCC1 | > 10 µM (inactive)
